Results on 2 compounds are retold here after patent US20160279142A1, “COMBINATIONS OF A PHOSPHOINOSITIDE 3-KINASE INHIBITOR COMPOUND AND A CDK4/6 INHIBITOR COMPOUND FOR THE TREATMENT OF CANCER” (Genentech, Inc., priority 2015, published 2016).

Structures are written as SMILES. Entries after “also recorded” stand apart in the source; their conditions may differ.

The test system of experiment [1] is MCF-7 breast cancer xenografts. Kind of experiment: In vivo tumor efficacy study, MCF-7 breast cancer xenografts. Conditions: MCF-7 xenograft mice; for CR: complete responses (100% tumor regression); for PR: partial responses (tumor regression >50% but <100%); for TTP 2X: time to progression 2X; for TTP 2X / AUC/Day % TGI (lower, upper): po qdx21; for AUC/Day % TGI (lower, upper): tumor growth inhibition vs vehicle; for Vol Day 21: tumor volume at day 21, po qdx21 (method b194 gives mm^3). Here is the method:
The animals were fed ad libitum water (reverse osmosis, 1 ppm Cl) and NIH 31 Modified and Irradiated Lab Diet® consisting of 18.0% crude protein, 5.0% crude fat, and 5.0% crude fiber. The mice were housed on irradiated ALPHA-Dri® Bed-o'Cobs® Laboratory Animal Bedding in static microisolators on a 12-hour light cycle at 21-22° C. (70-72° F.) and 40-60% humidity. PRC specifically complies with the recommendations of the Guide for Care and Use of Laboratory Animals with respect to restraint, husbandry, surgical procedures, feed and fluid regulation, and veterinary care. The animal care and use program at PRC is accredited by the Association for Assessment and Accreditation of Laboratory Animal Care International (AAALAC), which assures compliance with accepted standards for the care and use of laboratory animals.
Xenografts were initiated with cancer cells, including breast cancer cell lines MCF-7 (Soule H. D. et al (1973) Jour. Nat. Cancer Inst. 51 (5): 1409-1416; Levenson A. S. et al (1997) Cancer Res. 57 (15): 3071-3078; LaCroix M. et al (2004) Breast Res. and Treatment 83 (3): 249-289) and MDA-MB-453 (Vranic S. et al (2011) Onc. Letters 2: 1131-1137; Hall R. E. et al (1994) Euro. Jour. Cancer 30(4):484-490). Cells were cultured in RPMI 1640 medium supplemented with 10% fetal bovine serum, 2 mM glutamine, 100 units/mL penicillin, […] streptomycin sulfate and 25 μg/mL gentamicin. The cells were harvested during exponential growth and resuspended in phosphate buffered saline (PBS) at a concentration of 5×10^6 or 10×10^6 cells/mL depending on the doubling time of the cell line. Tumor cells were implanted subcutaneously in the right flank, and tumor growth was monitored as the average size approached the target range of 100 to 150 mm3. Twenty-one days after tumor implantation, designated as Day 0 of the study, the mice were placed into four groups each consisting of ten mice with individual tumor volumes ranging from 75-172 mm3 and group mean tumor volumes from 120-121 mm3 (see Appendix A). Volume was calculated using the formula: […]
GDC-0032 was supplied as a dry powder in salt form, which contained 73% active agent, and was stored at room temperature protected from light. Drug doses were prepared weekly in 0.5% methylcellulose: 0.2% Tween 80 in deionized water (“Vehicle”) and stored at 4° C. The salt form containing 73% active agent was accounted for in the formulation of GDC-0032 doses. Doses of GDC-0032 were prepared on each day of dosing by diluting an aliquot of the stock with sterile saline (0.9% NaCl). All doses were formulated to deliver the stated mg/kg dosage in a volume of 0.2 mL per 20 grams of body weight (10 mL/kg).
All doses were scaled to the body weights of the individual animals and were provided by the route indicated in each of the figures.
Tumor volume was measured in 2 dimensions (length and width), using Ultra Cal IV calipers (Model 54 10 111; Fred V. Fowler Company), as follows: tumor volume (mm^3)=(length×width^2)×0.5 and analyzed using Excel version 11.2 (Microsoft Corporation). A linear mixed effect (LME) modeling approach was used to analyze the repeated measurement of tumor volumes from the same animals over time (Pinheiro, J. et al (2009); Tan, N. et al (2011) Clin. Cancer Res. 17(6):1394-1404). This approach addresses both repeated measurements and modest dropouts due to any non-treatment-related death of animals before study end. Cubic regression splines were used to fit a nonlinear profile to the time courses of log 2 tumor volume at each dose level. These nonlinear profiles were then related to dose within the mixed model. Tumor growth inhibition as a percentage of vehicle control (% TGI) was calculated as the percentage of the area under the fitted curve (AUC) for the respective dose group per day in relation to the vehicle, using the following formula: % TGI=100×(1−AUCdose/AUCveh). […]

For experiment [2], the system named is pAkt, pPRAS40, pS6RP, pRb, cleaved PARP in MDA-MB-453 tumors. Kind of experiment: Protein levels (pharmacodynamic markers) in MDA-MB-453 tumors. The class given is in vivo, mice. Conditions: for levels of pRB (ratio pRb to tRb): GDC-0032 5 mg/kg, palbociclib 50 mg/kg, 1 hr and 4 hr (FIG. 9d). On the procedure: FIGS. 9a-d show ratios of protein levels of mice treated with vehicle, GDC-0032 at 5 mg/kg, palbociclib at 50 mg/kg, and the combination of GDC-0032 at 5 mg/kg+palbociclib at 50 mg/kg, measured at 1 hr and 4 hr.

The test system of experiment [3] is MCF7×2.3.ARO.LetR letrozole-resistant breast cancer cells (Letrozole-R1). Nature of the experiment: CellTiter-Glo cell viability, letrozole-resistant MCF7x2.3.ARO.LetR. The settings on record: letrozole-resistant MCF7 LetR (FIG. 1b, FIG. 4). Type of experiment: cell-based. On the procedure:
(§1) Cell culture. MCF7 cell line was obtained from the American Type Culture Collection (ATCC, VA). The cells were tested and authenticated using gene expression and single nucleotide polymorphism genotyping arrays (Hoeflich K P, et al (2009) Clin Cancer Res, 15(14):4649-4664; Hu X, et al (2009) Mol Cancer Res, 7(4):511-522) and cultured in RPMI supplemented with 10% fetal bovine serum, 100 units/ml penicillin, 100 µg/ml streptomycin, 2 mM L-glutamine and NEAA at 37° C. under 5% CO2. Stable aromatase-expressing MCF7 cells (MCF7-ARO) were generated by transfection of a plasmid vector containing the full aromatase gene and a neomycin selection gene. The cells were maintained in androstenedione and all experiments were performed in the presence of androstenedione except where indicated
(§2) The CellTiter-Glo® Luminescent Cell Viability Assay is a homogeneous method to determine the number of viable cells in culture based on quantitation of the ATP present, which signals the presence of metabolically active cells. […]
(§3) The assay assesses the ability of compounds to enter cells and inhibit cell proliferation. The assay principle is based on the determination of the number of viable cells present by quantitating the ATP present in a homogenous assay where addition of the Cell Titer-Glo® reagent results in cell lysis and generation of a luminescent signal through the luciferase reaction. […]
Cell viability assays. […] After 4 days incubation, relative numbers of viable cells were estimated using CellTiter-Glo (Promega, Madison, Wis.) and total luminescence was measured on an Envision plate Reader (PerkinElmer, Foster City, Calif.). […]
Cell viability assays and combination assays: Cells were seeded at 1000-2000 cells/well in 384-well plates for 16 h. […] After 4 days, relative numbers of viable cells were measured by luminescence using Cell Titer-Glo® (Promega) according to the manufacturer's instructions and read on a Wallac Multilabel Reader® (PerkinElmer, Foster City). EC50 values were calculated using Prism® 4.0 software (GraphPad, San Diego). […]
(In general: Cellular ATP, detected with luciferase, serves as a proxy for viable cell number.)

Experiment [4] relates to MCF7×2.3.CMV.ARO.LetR letrozole-resistant breast cancer cells. Kind of experiment: CellTiter-Glo cell viability, MCF7x2.3.CMV.ARO.LetR. The class given is cell-based. Conditions: dose titrations (FIG. 6). On the procedure: as §1, §2, §3
Experiment [5] relates to cyclin D1, cyclin E, phosphorylated Rb (Ser807/811) and cleaved PARP. Kind of experiment: Western blot pathway signaling in MCF7-ARO parental and resistant lines. Type of experiment: cell-based. The settings on record: 24 hours of treatment (FIG. 2). Here is the method:
Cells were treated for 24 hours with 20 nM GDC-0032 (Parental and Letrozole-R1) or 2.5 μM (Let-R1.GDC-0032-R) and/or 2.5 μM palbociclib.
Taselisib combines well with palbociclib in double-resistant MCF7-ARO cells (FIG. 1c). The effect on viability of taselisib and palbociclib as single agents is shown, respectively. The combination effect of the two drugs is indicated. Starting doses for taselisib were 80 nM for the parental and letrozole-R1 lines and 10 μM for […]. Palbociclib starting doses were 10 μM for all three lines (FIGS. 1a-c). Immunoblots from samples treated for 24 hours with 20 nM taselisib (Parental and Letrozole-R1) or 2.5 (Let-R1.taselisib-R). (D) Increased growth arrest is observed with combined PI3K and CDK4/6 inhibition. Immunoblots from samples treated for 24 hours with 20 nM taselisib (Parental and Letrozole-R1) or 2.5 μM (Let-R1. taselisib-R) and/or 2.5 μM palbociclib. Dotted lines for all viability data are indicative of CTG counts at the beginning of drug treatment. Error bars indicate standard deviation around the mean.
For orientation: Immunoblotting shows a protein as a band on a membrane.

On to `CC(=O)c1c(C)c2cnc(Nc3ccc(N4CCNCC4)cn3)nc2n(C2CCCC2)c1=O` [palbociclib, 6-acetyl-8-cyclopentyl-5-methyl-2-(5-(piperazin-1-yl)pyridin-2-ylamino)pyrido[2,3-d]pyrimidin-7(8H)-one, reference compound], for which, in experiment [1], the CR stood at 0; the PR is listed as 0; the “TTP 2X” value was 8.5; the “AUC/Day % TGI (lower, upper)” value is 39 (0, 63) %. Besides, the “Vol Day 21” value in experiment [1] amounted to 421. The “levels of pRB (ratio pRb to tRb)” value in experiment [2] is given as “decreased”. In addition, in experiment [3], the “cell viability (CellTiter-Glo)” value is listed as “more resistant”.

Take `Cc1nc(-c2cn3c(n2)-c2ccc(-c4cnn(C(C)(C)C(N)=O)c4)cc2OCC3)n(C(C)C)n1` [GDC-0032, 2-(4-(2-(1-isopropyl-3-methyl-1H-1,2,4-triazol-5-yl)-5,6-dihydrobenzo[f]imidazo[1,2-d][1,4]oxazepin-9-yl)-1H-pyrazol-1-yl)-2-methylpropanamide]: the “cell viability (CellTiter-Glo)” value in experiment [4] is on record as “potency remains”. Besides, in experiment [1], the CR is recorded as 0; the PR worked out at 0; the “TTP 2X” value is on record as 9.5; the “AUC/Day % TGI (lower, upper)” value was 49 (16, 71) %. The “Vol Day 21” value in experiment [1] was 349. In experiment [5], the “PI3K pathway signaling (immunoblot)” value is recorded as “decreases” and the “cleaved PARP (immunoblot)” value is recorded as “detected”. Moreover, the “levels of pAkt (ratio pAkt to tAkt)” value in experiment [2] (5 mg/kg, 1 hr and 4 hr (FIG. 9a)) is given as “effectively decreased”. Further, the “levels of pPRAS40 (ratio pPRAS40 to tPRAS40)” value in experiment [2] (5 mg/kg, 1 hr and 4 hr (FIG. 9b)) is “effectively decreased”. The “levels of pS6RP (ratio pS6RP to tS6RP)” value in experiment [2] (5 mg/kg, 1 hr and 4 hr (FIG. 9c)) was “effectively decreased”. Also, in experiment [2] (5 mg/kg, 1 hr and 4 hr (FIG. 9e)), the “cell death based on cleaved PARP” value is reported as “induced cell death”. The “levels of pRB (ratio pRb to tRb)” value in experiment [2] was “decreased”. The “cell viability (CellTiter-Glo)” value in experiment [3] was “potency remains; also recorded: equally sensitive”. Besides, the “cell viability (CellTiter-Glo)” value in experiment [3] (listed as taselisib) is given as “similarly sensitive”.
